In publication PMC7999199, “Novel Cationic Meso-Arylporphyrins and Their Antiviral Activity against HSV-1” (Pharmaceuticals, 2021):
Where two headings read alike, the source gives them in different places.

How the values were obtained:
Vero cells = assay: Vero cell viability, MTT test, 72 h; format: cell-based, African green monkey; conditions: Vero cells; for CC50: Pluronic F-127 (F127) micellar formulation, MTT, 72 h
Description: (§1) Before testing antiviral activity, the effect of porphyrins dissolved in PBS and Pluronic F-127 on the viability of Vero cells was evaluated. Cells were incubated for 72 h using different concentrations of porphyrins (0.39–100 μM). Viability was assessed using the MTT test (Figure S13, Table S1, Supplementary Information). The viability of Vero cells depends on the porphyrins’ structure and formulation.
(§2) Cell viability was assessed by MTT reduction assay. Briefly, confluent monolayer Vero cells in 96-well plates (15000 cells/well) were incubated for 72 h with different concentrations of the compounds ranging from 0.39 µM to 100 µM in DMEM-1% FCS at 36.8 °C in 5% CO2 atmosphere. Next, cells were incubated for 1 h with 1.0 mg/mL of 3-(4,5-dimethylthiazol-2-y1)-2,5-diphenyltetrazolium bromide (MTT, PanEco, Moscow, Russia) at 36.8 °C, and then the solution was removed, and precipitated formazan was diluted in DMSO (PanEco, Moscow, Russia). The solution was read on a spectrophotometer at 540 nm. For each concentration, the average cell viability was calculated from the data of three experiments with three replicates each and was expressed as a percentage compared to the untreated cells (100%).
(§3) Table s1. Vero cell viability after exposure to 3a, 3b, TMEPyP compounds dissolved in PBS and Pluronic F-127. Different concen-
(§4) trations of compounds were applied to the cell monolayer and after incubation for 3 days, the number of living cells was calculated
(§5) in the MTT test. Each point represents the mean ± standard deviation of three experiments with […] each. n.d. –not done.
(§6) Compound Concentration, µM/L Viability % ±s.d.

[1] = Vero cell viability, MTT test, 72 h; format: cell-based, African green monkey; conditions: African green monkey, Vero cells, MTT; for viability at 72 h, 0.39 µM: 0.39 µM/L; for viability at 72 h, 0.39 µM / viability at 72 h, 0.78 µM / viability at 72 h, 1.56 µM / viability at 72 h, 3.13 µM / viability at 72 h, 6.25 µM / viability at 72 h, 12.5 µM / viability at 72 h, 25 µM / viability at 72 h, 50 µM / viability at 72 h, 100 µM: Vero, 3 days, read-out: Viability % ±s.d.; for viability at 72 h, 0.78 µM: 0.78 µM/L; for viability at 72 h, 1.56 µM: 1.56 µM/L; for viability at 72 h, 3.13 µM: 3.13 µM/L; for viability at 72 h, 6.25 µM: 6.25 µM/L; for viability at 72 h, 12.5 µM: 12.50 µM/L; for viability at 72 h, 25 µM: 25 µM/L; for viability at 72 h, 50 µM: 50 µM/L; for viability at 72 h, 100 µM: 100 µM/L; for CC50 at 72 h: dissolved in PBS
Description: as §1, §2, §3, §4, §5, §6

[2] = Micelle size of Pluronic F-127 formulations by dynamic light scattering; format: physicochemical; conditions: Pluronic F-127 micelles, concentration 3·10^−6 M
Description: The size of obtained micelles for the compounds 3a,b was determined by the dynamic light scattering (DLS) method. The micelle size for compounds 3a,b was 17.53 nm and 14.69 nm, respectively, at concentrations of 3·10^−6 M (Figure 4a,b). It has previously been reported that a similar micelle size increased the efficiency and circulation of the encapsulated drug in the blood due to the small scale, which avoided the capture of nanoparticles by the reticular endothelial system.
NMR (^1H and ^13C) spectra of the test solutions in CDCl3 or (CD3OD) were recorded on a Bruker MSL-300 pulse Fourier transform spectrometer (Bruker, Billerica, MA, USA) at frequencies of 300.3 and 75.49 MHz, respectively, with internal deuterium stabilization. Tetramethylsilane was used as an external standard. IR spectra (4000–500 cm^–1) were recorded on Infralyum FT 02 Fourier spectrometer (Lumex Instruments Research and Production Company, Moscow, Russia) with a resolution of 1 cm^−1. Samples were prepared as KBr tablets. Dynamic light scattering was measured using Malvern Zetasizer Nano ZS (Malvern, United Kingdom). […] Mass spectra were recorded using an 1100 LCMSD liquid chromatograph (Agilent Technologies, Santa Clara, CA, USA) equipped with a mass spectrometric chemical ionization detector at atmospheric pressure (HIAD, APCI, ESI) and with a UV spectrophotometric detector (DAD). […]

[3] = n-Octanol/PBS partition coefficient; format: physicochemical; conditions: 1-n-octanol/PBS, pH 7; read-out: LogP (LogPow, 1-n-octanol/water partition coefficient)
Description: The normalized UV-vis spectra, as well as the fluorescence spectra in DMSO and ethanol, are shown in Figures S1 and S2 (Supplementary Information). Fluorescence quantum yields were measured as compared with 5,10,15,20-tetrakisphenylporphyrin (TPP) (ΦF = 0.11) and ZnTPP (ΦF = 0.033). For free-base compounds 3a,b fluorescence quantum yields were similar at ca. 0.13 in DMSO and ca. 0.14, respectively. Octanol-water distribution coefficients were calculated using 1-n-octanol and phosphate-buffered saline (PBS), according to the method described in [53]. […] As expected, compound 3a was more hydrophilic (LogPow = −4.86) than 3b (LogPow = −4.6). Such an effect can be associated with the increase in the number of methylene spacers in compound 3b.
The distribution coefficient was measured using 1-n-octanol and phosphate buffered saline (PBS), which were presaturated with each other by the described method. […] The absorption of each layer was measured spectrophotometrically in the region of the Soret band. Partition coefficients were calculated as the ratio between absorption in the Soret band of photosensitizers in organic and aqueous phase and the dilution factors for the organic and aqueous layers, according to the aforementioned method.

SMILES | CC50 (Vero cells) | viability at 72 h, 0.39 µM ([1]; +F127 (Pluronic F-127)) | viability at 72 h, 0.78 µM ([1]; +F127 (Pluronic F-127)) | viability at 72 h, 1.56 µM ([1]; +F127 (Pluronic F-127)) | viability at 72 h, 3.13 µM ([1]; +F127 (Pluronic F-127)) | viability at 72 h, 6.25 µM ([1]; +F127 (Pluronic F-127)) | viability at 72 h, 12.5 µM ([1]; +F127 (Pluronic F-127)) | viability at 72 h, 25 µM ([1]; +F127 (Pluronic F-127)) | viability at 72 h, 50 µM ([1]; +F127 (Pluronic F-127)) | viability at 72 h, 100 µM ([1]; +F127 (Pluronic F-127)) | viability at 72 h, 3.13 µM ([1]; -F127 (PBS)) | viability at 72 h, 6.25 µM ([1]; -F127 (PBS)) | viability at 72 h, 12.5 µM ([1]; -F127 (PBS)) | viability at 72 h, 25 µM ([1]; -F127 (PBS)) | viability at 72 h, 50 µM ([1]; -F127 (PBS)) | viability at 72 h, 100 µM ([1]; -F127 (PBS)) | CC50 at 72 h [1] | other results
O=C(CC[n+]1ccccc1)Oc1ccc(-c2c3nc(c(-c4ccc(OC(=O)CC[n+]5ccccc5)cc4)c4ccc([nH]4)c(-c4ccc(OC(=O)CC[n+]5ccccc5)cc4)c4nc(c(-c5ccc(OC(=O)CC[n+]6ccccc6)cc5)c5ccc2[nH]5)C=C4)C=C3)cc1 [3a] | > 100 µM | 93 ± 4.6% | 99.2 ± 4.2% | 95.6 ± 4.2% | 90.8 ± 2.3% | 90.3 ± 7.8% | 91.7 ± 2.8% | 89.1 ± 4.1% | 92.9 ± 2% | 80.4 ± 1.8% | 106 ± 4.5% | 105 ± 8.7% | 94.7 ± 5.1% | 90.9 ± 10% | 91.9 ± 2.2% | 76.8 ± 6.9% | > 100 µM | toxic concentration (Vero cells; used to choose concentrations for the virucidal test): > 100 µM; viability at 72 h, 0.39 µM ([1]; -F127 (PBS)): 94.6 ± 2.9%; viability at 72 h, 0.78 µM ([1]; -F127 (PBS)): 102 ± 4.2%; viability at 72 h, 1.56 µM ([1]; -F127 (PBS)): 108 ± 15.4%; micelle size (DLS) [2]: 17.53 nm; logP [3]: -4.86
C[n+]1ccc(-c2c3nc(c(-c4cc[n+](C)cc4)c4ccc([nH]4)c(-c4cc[n+](C)cc4)c4nc(c(-c5cc[n+](C)cc5)c5ccc2[nH]5)C=C4)C=C3)cc1 [TMePyP, 5,10,15,20-tetrakis(1-methyl-4-pyridinio)porphyrin tetraiodide, reference compound] | > 100 µM | 82.9 ± 5.4% | 79.9 ± 2.3% | 90.2 ± 9.7% | 95.2 ± 6% | 90.4 ± 2.7% | 83 ± 8.6% | 95.2 ± 3.2% | 114 ± 6.2% | 104 ± 1.2% | 101 ± 5% | 98.5 ± 5% | 97.4 ± 4.6% | 95.3 ± 5.3% | 93.7 ± 5.5% | 89.6 ± 6.8% | > 100 µM | 
